{"source": "patent US7704994B2", "about": "“Benzazepine derivatives for the treatment of neurological disorders” (Glaxo Group Limited, priority 2002, dated 2010)", "target": "T1, human histamine H3 receptor (Homo sapiens, UniProt Q9Y5N1)", "T1 construct": "expressed in transfected cells; host or cells: CHO K1 cells carrying pSwitch, transfected with pGeneH3 and induced with mifepristone; membranes of clone 3H3", "T1 sequence (Q9Y5N1 whole entry)": "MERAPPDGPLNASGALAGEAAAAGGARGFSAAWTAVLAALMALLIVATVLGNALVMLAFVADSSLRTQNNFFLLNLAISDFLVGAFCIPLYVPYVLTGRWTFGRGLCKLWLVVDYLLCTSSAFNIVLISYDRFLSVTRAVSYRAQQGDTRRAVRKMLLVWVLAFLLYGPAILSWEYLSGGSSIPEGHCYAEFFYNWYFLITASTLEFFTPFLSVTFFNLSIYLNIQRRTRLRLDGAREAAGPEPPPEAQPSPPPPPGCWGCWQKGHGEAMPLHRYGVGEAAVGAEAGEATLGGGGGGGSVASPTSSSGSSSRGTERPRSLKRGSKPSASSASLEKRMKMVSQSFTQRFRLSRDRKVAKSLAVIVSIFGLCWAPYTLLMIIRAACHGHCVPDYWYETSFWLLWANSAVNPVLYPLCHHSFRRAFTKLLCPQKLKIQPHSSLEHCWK", "assay": "Histamine H3 functional antagonist assay", "assay_type": "biochemical", "procedure": "A membrane preparation containing histamine H3 receptors may be prepared in accordance with the following procedures:\nLigated DNA was transformed into competent DH5α E. coli host bacterial cells and plated onto Luria Broth (LB) agar containing Zeocin™ (an antibiotic which allows the selection of cells expressing the sh ble gene which is present on pGene and pSwitch) at 50 μg ml^−1. Colonies containing the re-ligated plasmid were identified by restriction analysis. DNA for transfection into mammalian cells was prepared from 250 ml cultures of the host bacterium containing the pGeneH3 plasmid and isolated using a DNA preparation kit (Qiagen Midi-Prep) as per manufacturers guidelines (Qiagen).\nCHO K1 cells previously transfected with the pSwitch regulatory plasmid (InVitrogen) were seeded at 2×10e6 cells per T75 flask in Complete Medium, containing Hams F12 (GIBCOBRL, Life Technologies) medium supplemented with 10% v/v dialysed foetal bovine serum, L-glutamine, and hygromycin (100 μg ml^−1), 24 hours prior to use. Plasmid DNA was transfected into the cells using Lipofectamine plus according to the manufacturers guidelines (InVitrogen). 48 hours post transfection cells were placed into complete medium supplemented with 500 μg ml^−1 Zeocin™.\n10-14 days post selection 10 nM Mifepristone (InVitrogen), was added to the culture medium to induce the expression of the receptor. […] Approximately 1×10e7 cells were examined for receptor expression by staining with a rabbit polyclonal antibody, 4a, raised against the N-terminal domain of the histamine H3 receptor, incubated on ice for 60 minutes, followed by two washes in sorting medium. […] Following two further washes with Sorting Medium, cells were filtered through a 50 μm Filcon™ (BD Biosciences) and then analysed on a FACS Vantage SE Flow Cytometer fitted with an Automatic Cell Deposition Unit. […] Positively stained cells were sorted as single cells into 96-well plates, containing Complete Medium containing 500 μg ml^−1 Zeocin™ and allowed to expand before reanalysis for receptor expression via antibody and ligand binding studies.\nAll steps of the protocol are carried out at 4° C. and with pre-cooled reagents. […] The cells are then homogenised by 2×15 second bursts in a 1 litre glass Waring blender, followed by centrifugation at 500 g for 20 minutes. The supernatant is then spun at 48,000 g for 30 minutes. […]\nThe plate is then incubated on a shaker at room temperature for 30 minutes followed by centrifugation for 5 minutes at 1500 rpm. The plate is read between 3 and 6 hours after completion of centrifuge run in a Wallac Microbeta counter on a 1 minute normalised tritium count protocol. Data is analysed using a 4-parameter logistic equation. […]", "key": {"[1]": {"details": "membranes of CHO K1 cells expressing human histamine H3, [35S]GTPγS SPA, histamine 0.3 μM, read-out: antagonism (pKb) (converted)"}}, "note": "“And” between values parts separate entries of the source, which are not always exact repeats. Equal entries are not always repeated. Where two headings read alike, the source gives them in different places."}
{"compound": "c1ccc(COc2ccc3c(c2)CCN(C2CCC2)CC3)cc1", "note": "[Example 1, 7-Benzyloxy-3-cyclobutyl-2,3,4,5-tetrahydro-1H-benzo[d]azepine]", "values": [{"measurement": "Kb", "value": "0.0316 to 1", "unit": "nM"}]}
{"compound": "O=C(N1CCOCC1)N1CCC(Oc2ccc3c(c2)CCN(C2CCC2)CC3)CC1", "note": "[Example 52]", "values": [{"measurement": "Kb", "setting": "[1]", "value": "0.0316 to 1", "unit": "nM"}]}
{"compound": "CNC(=O)c1ccc(Oc2ccc3c(c2)CCN(C2CCC2)CC3)nc1", "note": "[Example 121, 6-(3-Cyclobutyl-2,3,4,5-tetrahydro-1H-benzo[d]azepin-7-yloxy)-N-methyl-nicotinamide]", "values": [{"measurement": "Kb", "setting": "[1]", "value": "0.0316 to 1 nM and < 0.316 nM"}]}
{"compound": "O=C1CCCN1c1ccc(Oc2ccc3c(c2)CCN(C2CCC2)CC3)nc1", "note": "[Example 217, 1-{6-[(3-Cyclobutyl-2,3,4,5-tetrahydro-1H-3-benzazepin-7-yl)oxy]-3-pyridinyl}-2-pyrrolidinone]", "values": [{"measurement": "Kb", "setting": "[1]", "value": "0.0316 to 1", "unit": "nM"}]}
